Results reported in patent publication US20080045537A1, “Chemical Compounds” (priority 2004, published 2008).

test system: HIV-1 IIIB (T-tropic, CXCR4 utilizing); test: HOS HIV-1 infectivity assay; format: cell-based; settings: Human immunodeficiency virus 1, IIIB; as determined by the infectivity assay; strain not stated in Table 2; read-out: Activity Level
Description: Compounds were profiled against two HIV-1 viruses, the M-tropic (CCR5 utilizing) Ba-L strain and the T-tropic (CXCR4 utilizing) IIIB strain. Both viruses were propagated in human peripheral blood lymphocytes. Compounds were tested for there ability to block infection of the HOS cell line (expressing hCXCR4/hCCR5/hCD4/pHIV-LTR-luciferase) by either HIV-1 Ba-L or HIV-1 IIIB. Compound cytotoxicity was also examined in the absence of virus addition.
HOS cells (expressing hCXCR4/hCCR5/hCD4/pHIV-LTR-luciferase) were harvested and diluted in Dulbeccos modified Eagles media supplemented with 2% FCS and non-essential amino acid to a concentration of 60,000 cells/ml. The cells were plated into 96-well plates (100 ul per well) and the plates were placed in a tissue culture incubator (37° C.; 5% CO2/95% air) for a period of 24 h.
Subsequently, 50 ul of the desired drug solution (4 times the final concentration) was added to each well and the plates were returned to the tissue culture incubator (37° C.; 5% CO2/95% air) for 1 h. Following this incubation 50 ul of diluted virus was added to each well (approximately 2 million RLU per well of virus). The plates were returned to the tissue culture incubator (37° C.; 5% CO2/95% air) and were incubated for a further 96 h.
Following this incubation the endpoint for the virally infected cultures was quantified following addition of Steady-Glo Luciferase assay system reagent (Promega, Madison, Wis.). Cell viability or non-infected cultures was measured using a CellTiter-Glo luminescent cell viability assay system (Promega, Madison, Wis.). All luminescent readouts are performed on a Topcount luminescence detector (Packard, Meridien, Conn.).

IC50 [nM] | Structure (SMILES)
< 100 | C[C@H](c1nc2c(N3CCN(C)CC3)cccc2[nH]1)N(C)C1CCCc2cccnc21 (stereo partly drawn) [Example 172, N-Methyl-N-{(1R)-1-[4-(4-methyl-1-piperazinyl)-1H-benzimidazol-2-yl]ethyl}-5,6,7,8-tetrahydro-8-quinolinamine]
100 to 500 | CN(Cc1nc2c(NC(=O)CN)cccc2[nH]1)C1CCCc2cccnc21 (stereo not drawn) [Example 99, N^1-(2-{[methyl(5,6,7,8-tetrahydro-8-quinolinyl)amino]methyl}-1H-benzimidazol-4-yl)glycinamide]
< 100 | CN1CCN(c2cccc3nc(CN(Cc4ccccc4)[C@H]4CCCc5cccnc54)n(C)c23)CC1 [Example 169, (8S)—N-{[1-Methyl-7-(4-methyl-1-piperazinyl)-1H-benzimidazol-2-yl]methyl}-N-(Phenylmethyl)-5,6,7,8-tetrahydro-8-quinolinamine]
500 to 10000 | CN(Cc1nc2cc(C(=O)N3CCN(C(=O)OCc4ccccc4)CC3)ccc2[nH]1)C1CCCc2cccnc21 (stereo not drawn) [Example 56, Phenylmethyl 4-[(2-{[methyl(5,6,7,8-tetrahydro-8-quinolinyl)amino]methyl}-1H-benzimidazol-5-yl)carbonyl]-1-piperazinecarboxylate]
< 100 | CCn1c(CN(C)[C@H]2CCCc3cccnc32)nc2cccc(N3CCN(C)CC3)c21 [Example 164, (8S)—N-{[1-ethyl-7-(4-methyl-1-piperazinyl)-1H-benzimidazol-2-yl]methyl}-N-methyl-5,6,7,8-tetrahydro-8-quinolinamine]
< 100 | CC1CNCCN1C(=O)c1cccc2[nH]c(CN(C)C3CCCc4cccnc43)nc12 (stereo not drawn) [Example 91, N-methyl-N-({4-[(2-methyl-1-piperazinyl)carbonyl]-1H-benzimidazol-2-yl}methyl)-5,6,7,8-tetrahydro-8-quinolinamine]
< 100 | CC(C)N1CCN(c2cccc3[nH]c(CN(C)C4CCCc5cccnc54)nc23)CC1 (stereo not drawn) [Example 111, N-Methyl-N-({4-[4-(1-methylethyl)-1piperazinyl]-1H-benzimidazol-2-yl}methyl)-5,6,7,8-tetrahydro-8-quinolinamine]
< 100 | CN1CCN(c2cccc3nc(CN(C)C4CCc5cccnc54)[nH]c23)CC1 (stereo not drawn) [Example 183, N-Methyl-N-{[4-(4-methyl-1-piperazinyl)-1H-benzimidazol-2-yl]methyl}-6,7-dihydro-5H-cyclopenta[b]pyridin-7-amine]
100 to 500 | CCN(Cc1nc2ccc(C(=O)NCCc3cncn3C)cc2[nH]1)C1CCCc2cccnc21 (stereo not drawn) [Example 43, 2-{[ethyl(5,6,7,8-tetrahydro-8-quinolinyl)amino]methyl}-N-[2-(1-methyl-1H-imidazol-5-yl)ethyl]-1H-benzimidazole-5-carboxamide]
100 to 500 | CN(Cc1nc2c(NC(=O)[C@@H]3CCCN3C)cccc2[nH]1)C1CCCc2cccnc21 (stereo partly drawn) [Example 104, 1-Methyl-N-(2-{[methyl(5,6,7,8-tetrahydro-8-quinolinyl)amino]methyl}-1H-benzimidazol-4-yl)-L-prolinamide]
< 100 | CN1CCN(c2ccc(Cl)c3nc(CN(C)C4CCCc5cccnc54)[nH]c23)CC1 (stereo not drawn) [Example 171, N-{[4-Chloro-7-(4-methyl-1-piperazinyl)-1H-benzimidazol-2-yl]methyl}-N-methyl-5,6,7,8-tetrahydro-8-quinolinamine]
< 100 | CCCN(Cc1nc2cccc(N3CCN4CCC[C@@H]4C3)c2[nH]1)[C@H]1CCCc2cccnc21 [Example 143, (8S)—N-({4-[(8aR)-hexahydropyrrolo[1,2-a]pyrazin-2(1H)-yl]-1H-benzimidazol-2-yl}methyl)-N-propyl-5,6,7,8-tetrahydro-8-quinolinamine]
100 to 500 | CN(Cc1nc2c(C(=O)NCCc3ccccn3)cccc2[nH]1)C1CCCc2cccnc21 (stereo not drawn) [Example 76, 2-{[Methyl(5,6,7,8-tetrahydro-8-quinolinyl)amino]methyl}-N-[2-(2-pyridinyl)ethyl]-1H-benzimidazole-4-carboxamide]
500 to 10000 | CN(Cc1nc2c(C(=O)NCCc3ccncc3)cccc2[nH]1)C1CCCc2cccnc21 (stereo not drawn) [Example 71, 2-{[Methyl(5,6,7,8-tetrahydro-8-quinolinyl)amino]methyl}-N-[2-(4-pyridinyl)ethyl]-1H-benzimidazole-4-carboxamide]
< 100 | CN1CCN(c2cccc3[nH]c([C@@H](COCc4ccccc4)N(C)C4CCCc5cccnc54)nc23)CC1 (stereo partly drawn) [Example 177, N-Methyl-N-{(1S)-1-[4-(4-methyl-1-piperazinyl)-1H-benzimidazol-2-yl]-2-[(phenylmethyl)oxy]ethyl}-5,6,7,8-tetrahydro-8-quinolinamine]
< 100 | CNCCN(C)c1cccc2[nH]c(CN(C)C3CCCc4cccnc43)nc12 (stereo not drawn) [Example 108, Methyl[2-(methylamino)ethyl](2-{[methyl(5,6,7,8-tetrahydro-8-quinolinyl)amino]methyl}-1H-benzimidazol-4-yl)amine]

Continued, compound first:

Structure (SMILES) | IC50 [nM]
CCN(Cc1nc2cc(C(=O)N3CCN(C)CC3)ccc2[nH]1)C1CCCc2cccnc21 (stereo not drawn) [Example 48, N-Ethyl-N-({5-[(4-methyl-1-piperazinyl)carbonyl]-1H-benzimidazol-2-yl}methyl)-5,6,7,8-tetrahydro-8-quinolinamine] | 100 to 500
CN(Cc1nc2c(C(=O)NC3CCNCC3)cccc2[nH]1)C1CCCc2cccnc21 (stereo not drawn) [Example 77, 2-{[Methyl(5,6,7,8-tetrahydro-8-quinolinyl)amino]methyl}-N-4-piperidinyl-1H-benzimidazole-4-carboxamide] | 100 to 500
CN(Cc1nc2cc(C(=O)NCc3cccnc3)ccc2[nH]1)C1CCCc2cccnc21 (stereo not drawn) [Example 39, 2-{[Methyl(5,6,7,8-tetrahydro-8-quinolinyl)amino]methyl}-N-(3-pyridinylmethyl)-1H-benzimidazole-5-carboxamide] | 500 to 10000
CC(C)N1CCN(C(=O)c2cccc3[nH]c(CN(C)C4CCCc5cccnc54)nc23)CC1 (stereo not drawn) [Example 87, N-Methyl-N-[(4-{[4-(1-methylethyl)-1-piperazinyl]carbonyl}-1H-benzimidazol-2-yl)methyl]-5,6,7,8-tetrahydro-8-quinolinamine] | 100 to 500
CN(Cc1nc2c(N3CCN(C(=O)c4ccccn4)CC3)cccc2[nH]1)C1CCCc2cccnc21 (stereo not drawn) [Example 117, N-Methyl-N-({4-[4-(2-pyridinylcarbonyl)-1-piperazinyl]-1H-benzimidazol-2-yl}methyl)-5,6,7,8-tetrahydro-8-quinolinamine] | 100 to 500
CN1CCN(c2c(Cl)ccc3nc(CN(C)C4CCCc5cccnc54)[nH]c23)CC1 (stereo not drawn) [Example 170, N-{[5-Chloro-4-(4-methyl-1-piperazinyl)-1H-benzimidazol-2-yl]methyl}-N-methyl-5,6,7,8-tetrahydro-8-quinolinamine] | < 100
CN1CCN(c2cccc3nc(CN(C)[C@@H]4CCCc5cccnc54)n(C)c23)CC1 [Example 161, (8R)—N-Methyl-N-{[1-methyl-7-(4-methyl-1-piperazinyl)-1H-benzimidazol-2-yl]methyl}-5,6,7,8-tetrahydro-8-quinolinamine] | < 100
CN(Cc1nc2cccc(N3CCNCC3)c2n1C)[C@H]1CCCc2cccnc21 [Example 159, (8S)—N-methyl-N-{[1-methyl-7-(1-piperazinyl)-1H-benzimidazol-2-yl]methyl}-5,6,7,8-tetrahydro-8-quinolinamine] | < 100
CN(Cc1nc2c(C(=O)N3CCC(N)CC3)cccc2[nH]1)C1CCCc2cccnc21 (stereo not drawn) [Example 82, N-({4-[(4-Amino-1-piperidinyl)carbonyl]-1H-benzimidazol-2-yl}methyl)-N-methyl-5,6,7,8-tetrahydro-8-quinolinamine] | < 100
CCN(Cc1nc2cc(C(=O)NCCCCCN)ccc2[nH]1)C1CCCc2cccnc21 (stereo not drawn) [Example 44, N-(5-Aminopentyl)-2-{[ethyl(5,6,7,8-tetrahydro-8-quinolinyl)amino]methyl}-1H-benzimidazole-5-carboxamide] | 500 to 10000
CN(C)CC(C)(C)CNC(=O)c1cccc2[nH]c(CN(C)C3CCCc4cccnc43)nc12 (stereo not drawn) [Example 80, N-[3-(Dimethylamino)-2,2-dimethylpropyl]-2-{[methyl(5,6,7,8-tetrahydro-8-quinolinyl)amino]methyl}-1H-benzimidazole-4-carboxamide] | 100 to 500
CN(C)CCN(C)c1cccc2[nH]c(CN(C)C3CCCc4cccnc43)nc12 (stereo not drawn) [Example 109, [2-(Dimethylamino)ethyl]methyl(2-{[methyl(5,6,7,8-tetrahydro-8-quinolinyl)amino]methyl}-1H-benzimidazol-4-yl)amine] | < 100
CN1CCN(c2cccc3nc(CN(CCOCc4ccccc4)[C@H]4CCCc5cccnc54)[nH]c23)CC1 [Example 147] | < 100
CC(C)N1CCN(c2cccc3[nH]c(CN(C(C)C)C4CCCc5cccnc54)nc23)CC1 (stereo not drawn) [Example 113, N-(1-methylethyl)-N-({4-[4-(1-methylethyl)-piperazinyl]-1H-benzimidazol-2-yl}methyl)-5,6,7,8-tetrahydro-8-quinolinamine] | < 100
